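The compound was tested at five concentrations on cells cultured in 96-well plates, with a 48-hour exposure period. At the GI50, growth is halved. TGI: total growth inhibition.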

Holding throughout (assay): inhibition of tumour cell growth, NCI panel, 48 h
Assay [1] has as its system 786-0 renal.
The subject of assay [2] is K-562 leukemia.
In assay [3] the test system is PC-3 prostate.
In assay [4] the test system is SF-268 CNS.
In assay [5] the test system is SN12C renal.
Assay [6] has as its system U251 CNS.
Assay [7] relates to UACC-257 melanoma.

On to `Cc1ncc(CCCN(C)C)cc1Nc1ncc2c(n1)-c1ccc(C(F)(F)F)cc1NC(=S)C2`, for which the GI50 is 0.0825 µM in assay [1]; less than 0.0169 µM in assay [2]; less than 0.0207 µM in assay [3]; less than 0.0195 µM in assay [4]; 0.0952 µM in assay [5]; less than 0.0194 µM in assay [6]. In addition, the TGI in assay [1] is 21.6 µM; in assay [2], more than 34 µM; in assay [3], 24.5 µM; in assay [4], 13.8 µM; in assay [5], 18.4 µM; in assay [6], 14 µM.
Consider `CCn1c(-c2ccc(OC(C)=O)cc2)c(C)c2cc(OC(C)=O)ccc21`, for which the TGI came to 86.9 µM in assay [1]; 55.3 µM in assay [2]; 44.1 µM in assay [3]; 58.5 µM in assay [4]; 79 µM in assay [5]; 26.2 µM in assay [6]. Besides, the TGI in assay [7] is 94.9 µM.
As for `Br[C](Br)(Br)[Hg][c]1ccccc1`, the GI50 in assay [1] was 16.2 µM; in assay [2], 0.275 µM; in assay [3] it was 14.7 µM; in assay [4] it was 24.1 µM; in assay [5] it was 16.2 µM; in assay [6] it was 13.9 µM. Moreover, the GI50 in assay [7] is 13.5 µM. For the same compound, the TGI in assay [1] came out at 30.2 µM; in assay [2] it was 5.02 µM; in assay [3], 28 µM; in assay [4], 56.2 µM; in assay [5] it was 29.7 µM; in assay [6] it was 27.6 µM. This compound gave a TGI in assay [7] of 26.7 µM.
For the compound `COc1cc(/C=C/c2cc(/C=C/c3ccc(O)c(OC)c3)n(C(=O)Nc3ccc(C)cc3C)n2)ccc1O`, the GI50 in assay [1] is 0.549 µM; in assay [2], 0.292 µM; in assay [3], 0.379 µM; in assay [6] it was 0.401 µM; in assay [7], 1.46 µM. In addition, the TGI in assay [1] is 1.76 µM; in assay [2], 1.17 µM; in assay [3], 5.01 µM; in assay [6] it was 1.47 µM; in assay [7], 5.25 µM.
In the case of `CC(C)C[C@H](NC(=O)/C=C/Cn1ccc2ccccc2c1=O)B(O)O`, the GI50 in assay [1] is 5.03 µM; in assay [2], 6 µM; in assay [3], 17.4 µM; in assay [4] it was 4.98 µM; in assay [5] it was 6.32 µM; in assay [7], 2.12 µM. Also, the TGI in assay [1] is more than 100 µM; in assay [2] it was more than 100 µM; in assay [3], more than 100 µM; in assay [4] it was 51.5 µM; in assay [5], more than 100 µM; in assay [7], 7.02 µM.
Take `COc1cc2[nH]c(C(=O)c3cc(OC)c(OC)c(OC)c3)c(N)c2cc1C#CC1CC1`: the GI50 in assay [1] is 3.25 µM; in assay [2], 1.94 µM; in assay [3], 2.21 µM; in assay [4], 9.08 µM; in assay [5], 7.69 µM; in assay [6] it was 4.74 µM. In addition, the GI50 in assay [7] was more than 100 µM. The TGI in assay [1], in assay [2], in assay [3], in assay [4], in assay [5] and in assay [6] was more than 100 µM in each case. Moreover, the TGI in assay [7] is more than 100 µM.
As to `COc1cc(C(=O)c2cc(C)c3[nH]c4ccc(C)cc4c3c2C)cc(OC)c1OC`, the GI50 is less than 0.01 µM in assay [1]; less than 0.01 µM in assay [2]; less than 0.01 µM in assay [3]; less than 0.0186 µM in assay [4]; less than 0.01 µM in assay [5]; less than 0.01 µM in assay [6]. Further, the GI50 in assay [7] was 4.5 µM. Further, the TGI in assay [1] is 3.17 µM; in assay [2] it was more than 100 µM; in assay [3] it was more than 100 µM; in assay [4], more than 100 µM; in assay [5], more than 100 µM; in assay [6], more than 27.1 µM. The compound further registered a TGI in assay [7] of more than 100 µM.
For `O=C(O)C1C(Br)(c2ccccc2)C1(Br)c1ccccc1` (configuration not stated), the TGI in assay [1] is more than 100 µM; in assay [2] it was more than 100 µM; in assay [3], more than 100 µM; in assay [4], 69.7 µM; in assay [5] it was more than 100 µM; in assay [6], more than 100 µM. In assay [7], this compound yielded a TGI of more than 100 µM.
For the compound `ClCC[N+]12CC[N+](CCCl)(CC1)C2`, the TGI in assay [1], in assay [2], in assay [3], in assay [4], in assay [5] and in assay [6] was more than 100 µM in each case. The compound also showed a TGI in assay [7] of more than 100 µM.
`CN(CCC#N)c1ccc(/C=C(\C#N)c2ccc(Br)cc2)cc1`: the GI50 in assay [1] was more than 100 µM; in assay [2], 3.5 µM; in assay [3] it was more than 100 µM; in assay [4], more than 100 µM; in assay [7] it was more than 100 µM. For the same compound, the TGI in assay [1], in assay [2], in assay [3], in assay [4] and in assay [7] was more than 100 µM in each case.
In the case of `COc1ccc(/C=C/C(=O)C(CC2CCC2)C(=O)/C=C/c2ccc(OC)c(OC)c2)cc1OC`, the GI50 in assay [1] was 1.83 µM; in assay [2], 2.15 µM; in assay [3] it was 2.85 µM; in assay [4] it was 2.58 µM; in assay [5], 1.93 µM; in assay [6] it was 1.38 µM. For the same compound, in assay [7], the GI50 was 1.86 µM. The TGI in assay [1] is 3.45 µM; in assay [2] it was more than 100 µM; in assay [3], more than 100 µM; in assay [4] it was 9.51 µM; in assay [5], 4.55 µM; in assay [6], 2.79 µM. For the same compound, in assay [7], the TGI was 3.41 µM.
`CC1=C(O)C(=O)C=C2C1=CC=C1[C@@]2(C)CC[C@@]2(C)[C@@H]3C[C@](C)(C(=O)O)CC[C@]3(C)CC[C@]12C`: the TGI in assay [1] was 0.0294 µM; in assay [2], 0.0617 µM; in assay [3], 0.185 µM; in assay [4], 0.106 µM; in assay [5], 0.142 µM; in assay [6] it was 0.139 µM. Further, the TGI in assay [7] was 0.1 µM.
For the compound `Cc1ccc(-c2nc3ccc(Cl)cc3c(=O)n2N2C(=O)CSC2c2ccccc2Cl)cc1` (configuration not stated), the GI50 in assay [1] was 3.62 µM; in assay [2] it was more than 100 µM; in assay [3] it was 83 µM; in assay [4], 9.97 µM; in assay [5] it was 11.8 µM; in assay [6], 5.05 µM. Further, in assay [7], the GI50 is more than 100 µM. For the same compound, the TGI in assay [1], in assay [2], in assay [3], in assay [4], in assay [5] and in assay [6] was more than 100 µM each time. In assay [7], the TGI is more than 100 µM.

(Values after PubChem BioAssay (NCI).)
